Laboratory results taken from ChEMBL document CHEMBL1144086, “Tryptamine derived amides and acetogenins from the seeds of Rollinia mucosa” (J Nat Prod, 1999).
≈ marks a conversion by molar mass, not a printed value.

Experiments:
[1] = (§1) Toxicity in Artemia salina; format: organism-based; details: in vivo
A549 = experiment: Cytotoxicity against human A549 cells; format: functional; details: read-out: ED50 (the source's name)
MCF7 = experiment: Cytotoxicity against human MCF7 cells; format: functional; details: read-out: ED50 (the source's name)
HT-29 = experiment: Cytotoxicity against human HT-29 cells; format: functional; details: read-out: ED50 (the source's name)
[2] = Cytotoxicity against human […] cells; format: functional; details: read-out: ED50 (the source's name)
PC-3 = experiment: Cytotoxicity against human PC-3 cells; format: functional; details: read-out: ED50 (the source's name)
MIA PaCa-2 = experiment: Cytotoxicity against human PaCa2 cells; format: functional; details: read-out: ED50 (the source's name)
Artemia salina = experiment: as §1; format: organism-based; details: in vivo

Question: For `CCCCCCCCCCCCCCCCCCCCCC(=O)NCCc1c[nH]c2ccccc12`, which LC50 [1] is on record?
Answer: > 500 µg/mL

Question: And the EC50 (A549)?
Answer: > 10 µg/mL

Question: What about the EC50 (MCF7) of the same compound?
Answer: > 10 µg/mL

Question: And the EC50 (HT-29)?
Answer: > 10 µg/mL

Question: What about the EC50 [2] of the same compound?
Answer: > 10 µg/mL

Question: And the EC50 (PC-3)?
Answer: > 10 µg/mL

Question: What about the EC50 (MIA PaCa-2) of the same compound?
Answer: > 10 µg/mL

Question: With `CCCCCCCCCCCCCCCCCCCCCCCCCC(=O)NCCc1c[nH]c2ccccc12` as the compound, how does the LC50 [1] read?
Answer: > 500 µg/mL

Question: And the EC50 (A549)?
Answer: > 10 µg/mL

Question: What about the EC50 (MCF7) of the same compound?
Answer: > 10 µg/mL

Question: What about the EC50 (HT-29) of the same compound?
Answer: > 10 µg/mL

Question: What about the EC50 [2] of the same compound?
Answer: > 10 µg/mL

Question: And the EC50 (PC-3)?
Answer: > 10 µg/mL

Question: What about the EC50 (MIA PaCa-2) of the same compound?
Answer: > 10 µg/mL

Question: Which LC50 [1] does the source give for `CCCCCCCCCCCCCCCCCCCCCCC(=O)NCCc1c[nH]c2ccccc12` here?
Answer: > 500 µg/mL

Question: What about the EC50 (A549) of the same compound?
Answer: > 10 µg/mL

Question: What about the EC50 (MCF7) of the same compound?
Answer: > 10 µg/mL

Question: And the EC50 (HT-29)?
Answer: > 10 µg/mL

Question: And the EC50 [2]?
Answer: > 10 µg/mL

Question: And the EC50 (PC-3)?
Answer: > 10 µg/mL

Question: And the EC50 (MIA PaCa-2)?
Answer: > 10 µg/mL

Question: For `CCCCCCCCCCCCCCCC(=O)NCCc1c[nH]c2ccccc12`, which LC50 [1] is on record?
Answer: > 500 µg/mL

Question: What about the EC50 (A549) of the same compound?
Answer: > 10 µg/mL

Question: And the EC50 (MCF7)?
Answer: > 10 µg/mL

Question: And the EC50 (HT-29)?
Answer: > 10 µg/mL

Question: And the EC50 [2]?
Answer: > 10 µg/mL

Question: And the EC50 (PC-3)?
Answer: > 10 µg/mL

Question: What about the EC50 (MIA PaCa-2) of the same compound?
Answer: > 10 µg/mL

Question: Which results are given for `CCCCCCCCCCCCCCCCCC(=O)NCCc1c[nH]c2ccccc12`?
Answer: LC50 [1]: > 500 µg/mL; EC50 (A549): > 10 µg/mL; EC50 (MCF7): > 10 µg/mL; EC50 (HT-29): > 10 µg/mL; EC50 [2]: > 10 µg/mL; EC50 (PC-3): > 10 µg/mL; EC50 (MIA PaCa-2): > 10 µg/mL

Question: Which results are given for `CCCCCCCCCCCCCCCCCCCC(=O)NCCc1c[nH]c2ccccc12`?
Answer: LC50 [1]: > 500 µg/mL; EC50 (A549): > 10 µg/mL; EC50 (MCF7): > 10 µg/mL; EC50 (HT-29): > 10 µg/mL; EC50 [2]: > 10 µg/mL; EC50 (PC-3): > 10 µg/mL; EC50 (MIA PaCa-2): > 10 µg/mL

Question: What does the source list for `CCCCCCCCCCCCCCCCCCCCCCCC(=O)NCCc1c[nH]c2ccccc12`?
Answer: LC50 [1]: > 500 µg/mL; EC50 (A549): > 10 µg/mL; EC50 (MCF7): > 10 µg/mL; EC50 (HT-29): > 10 µg/mL; EC50 [2]: > 10 µg/mL; EC50 (PC-3): > 10 µg/mL; EC50 (MIA PaCa-2): > 10 µg/mL

Question: Which results are given for `CCCCCCCCCCCCCCCCCCCCCCCCC(=O)NCCc1c[nH]c2ccccc12`?
Answer: LC50 [1]: > 500 µg/mL; EC50 (A549): > 10 µg/mL; EC50 (MCF7): > 10 µg/mL; EC50 (HT-29): > 10 µg/mL; EC50 [2]: > 10 µg/mL; EC50 (PC-3): > 10 µg/mL; EC50 (MIA PaCa-2): > 10 µg/mL

Question: Which results are given for `CCCCCCCCCC[C@H](O)[C@H]1CC[C@H]([C@H]2CC[C@H]([C@H](O)CCCCCCCCCCCCC3=C[C@H](C)OC3=O)O2)O1` [BULLANIN]?
Answer: LC50 (Artemia salina): 1.6 ×10⁻² ug/ml; EC50 (A549): 0.47 µg/mL (≈ 0.774 µM); EC50 (MCF7): 1.35 µg/mL (≈ 2.22 µM); EC50 (HT-29): 1.69 µg/mL (≈ 2.78 µM); EC50 [2]: < 0.001 µg/mL; EC50 (PC-3): < 0.001 µg/mL; EC50 (MIA PaCa-2): 1.92 µg/mL (≈ 3.16 µM)

Question: Which EC50 (A549) does the source give for `COc1cccc2c1C(=O)c1c(O)c3c(c(O)c1C2=O)C[C@@](O)(C(=O)CO)C[C@@H]3O[C@H]1C[C@H](N)[C@H](O)[C@H](C)O1` [DOXORUBICIN] here?
Answer: 0.89 µg/mL (≈ 1.64 µM)

Question: And the EC50 (MCF7)?
Answer: 3.6 µg/mL (≈ 6.62 µM)

Question: What about the EC50 (HT-29) of the same compound?
Answer: 3.7 µg/mL (≈ 6.81 µM)

Question: What about the EC50 [2] of the same compound?
Answer: 0.0083 µg/mL (≈ 0.0153 µM)

Question: And the EC50 (PC-3)?
Answer: 0.0056 µg/mL (≈ 0.0103 µM)

Question: And the EC50 (MIA PaCa-2)?
Answer: 0.0011 µg/mL (≈ 0.00202 µM)

Question: With `CCCCCCCCCC[C@H](O)[C@@H]1CC[C@H]([C@H]2CC[C@@H]([C@H](O)CCCCCCCCCCCCC3=C[C@H](C)OC3=O)O2)O1` [MEMBRANACIN] as the compound, how does the LC50 (Artemia salina) read?
Answer: 5 ×10⁻² ug/ml

Question: And the EC50 (A549)?
Answer: 0.4 µg/mL (≈ 0.659 µM)

Question: And the EC50 (MCF7)?
Answer: 2.18 µg/mL (≈ 3.59 µM)

Question: What about the EC50 (HT-29) of the same compound?
Answer: 3.04 µg/mL (≈ 5.01 µM)

Question: And the EC50 [2]?
Answer: < 0.001 µg/mL

Question: And the EC50 (PC-3)?
Answer: < 0.001 µg/mL

Question: And the EC50 (MIA PaCa-2)?
Answer: 2.1 µg/mL (≈ 3.46 µM)
